Target: G12C K-Ras4B (1-169) (Homo sapiens (Human), UniProt P01116, G12C)
Assay: Test of compounds on whether to bind to KRASG12C (LC-MS compound binding rate)
Conditions: final compound concentration of 2 μM, 1 μM protein, 25° C. for 2 hours
Outline: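 K-Ras4B (1-169) WT and G12C (1 μM each, mixed) in 1×TBS, 0.1 mM TCEP incubated with compound (final 2 μM) 2 h at 25° C; quenched with 0.2% formic acid. Intact-protein LC-MS (ESI+, deconvoluted); binding rate = adduct signal/(adduct + unbound signal), giving selectivity over WT.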

Q: With `C=CC(=O)N1CC(NC(=O)c2c(Cl)nc(CNc3n[nH]c4cc(Cl)c(C(C)(C)C)cc34)n2-c2ccccn2)C1` [Example 94, N-(1-acryloylazetidin-3-yl)-2-(((5-(tert-butyl)-6-chloro-1H-indazol-3-yl)amino)methyl)-4-chloro-1-(pyridin-2-yl)-1H-imidazole-5-carboxamide] as the molecule, how does the “binding rate for G12C K-Ras4B (1-169)” value read?
A: B (a binding rate of 60% or more and less than 80% is rated “B,”)

Q: With `C=CC(=O)N1CC(NC(=O)c2c(C(F)F)nc(CNc3n[nH]c4cc(Cl)c(C(C)(C)C)cc34)n2CC2CCCN2C(C)C)C1` (stereo not shown) [Example 95, N-(1-acryloylazetidin-3-yl)-2-(((5-(tert-butyl)-6-chloro-1H-indazol-3-yl)amino)methyl)-4-(difluoromethyl)-1-((1-isopropylpyrrolidine-2-yl)methyl)-1H-imidazole-5-carboxamide] as the molecule, how does the “binding rate for G12C K-Ras4B (1-169)” value read?
A: A (a binding rate of 80% or more is rated “A,”)

Q: Which “binding rate for G12C K-Ras4B (1-169)” value does the source give for `C=CC(=O)N1CC(NC(=O)c2c(C(F)F)nc(CNc3n[nH]c4cc(Cl)c(C(C)(C)C)cc34)n2C2CCN(C(C)=O)C2)C1` (stereo not shown) [Example 96, 1-(1-Acetylpyrrolidin-3-yl)-N-(1-acryloylazetidin-3-yl)-2-(((5-(tert-butyl)-6-chloro-1H-indazol-3-yl)amino)methyl)-4-(difluoromethyl)-1H-imidazole-5-carboxamide] here?
A: A (a binding rate of 80% or more is rated “A,”)

Q: With `C=CC(=O)N1CC(NC(=O)c2c(Cl)nc(CNc3n[nH]c4cc(Cl)c(C(C)(C)C)cc34)n2C2CC=CC2)C1` [Example 98, N-(1-acryloylazetidin-3-yl)-2-(((5-(tert-butyl)-6-chloro-1H-indazol-3-yl)amino)methyl)-4-chloro-1-(cyclopent-3-en-1-yl)-1H-imidazole-5-carboxamide] as the molecule, how does the “binding rate for G12C K-Ras4B (1-169)” value read?
A: A (a binding rate of 80% or more is rated “A,”)

Q: How did the “binding rate for G12C K-Ras4B (1-169)” value turn out when `C=CC(=O)N1CC(NC(=O)c2c(Cl)nc(CNc3n[nH]c4cc(Cl)c(C(C)(C)C)cc34)n2[C@@H]2C[C@@H](O)[C@@H](O)C2)C1` [Example 99] was run?
A: A (a binding rate of 80% or more is rated “A,”)

Q: Which “binding rate for G12C K-Ras4B (1-169)” value does the source give for `C=CC(=O)N1CC(NC(=O)c2c(Cl)nc(CNc3n[nH]c4cc(Cl)c(C(C)(C)C)cc34)n2CC(F)F)C1` [Example 100, N-(1-acryloylazetidin-3-yl)-2-(((5-(tert-butyl)-6-chloro-1H-indazol-3-yl)amino)methyl)-4-chloro-1-(2,2-difluoroethyl)-1H-imidazole-5-carboxamide] here?
A: A (a binding rate of 80% or more is rated “A,”)

Q: How did the “binding rate for G12C K-Ras4B (1-169)” value turn out when `C=CC(=O)N1CC(NC(=O)c2c(Cl)nc(CNc3n[nH]c4cc(Cl)c(C(C)(C)C)cc34)n2C2CN(C(C)=O)C2)C1` [Example 108, 1-(1-acetylazetidin-3-yl)-N-(1-acryloylazetidin-3-yl)-2-(((5-(tert-butyl)-6-chloro-1H-indazol-3-yl)amino)methyl)-4-chloro-1H-imidazole-5-carboxamide] was run?
A: A (a binding rate of 80% or more is rated “A,”)

Q: `C=CC(=O)N1CC(NC(=O)c2c(Cl)nc(CNc3n[nH]c4cc(Cl)c(C(C)(C)C)cc34)n2C2CCCCC2)C1` [Example 109, N-(1-acryloylazetidin-3-yl)-2-(((5-(tert-butyl)-6-chloro-1H-indazol-3-yl)amino)methyl)-4-chloro-1-cyclohexyl-1H-imidazole-5-carboxamide] was tested. Which “binding rate for G12C K-Ras4B (1-169)” value did it give?
A: B (a binding rate of 60% or more and less than 80% is rated “B,”)

Q: `C=CC(=O)N1CC(NC(=O)c2c(Cl)nc(CNc3n[nH]c4cc(Cl)c(C(C)(C)C)cc34)n2CC2CCCC2)C1` [Example 110, N-(1-acryloylazetidin-3-yl)-2-(((5-(tert-butyl)-6-chloro-1H-indazol-3-yl)amino)methyl)-4-chloro-1-(cyclopentylmethyl)-1H-imidazole-5-carboxamide] was tested. Which “binding rate for G12C K-Ras4B (1-169)” value did it give?
A: A (a binding rate of 80% or more is rated “A,”)

Q: For `C=CC(=O)N1CC(NC(=O)c2c(Cl)nc(CNc3n[nH]c4cc(Cl)c(C(C)(C)C)cc34)n2[C@H]2C[C@H](C)CC[C@H]2C(C)C)C1` [Example 111, N-(1-acryloylazetidin-3-yl)-2-(((5-(tert-butyl)-6-chloro-1H-indazol-3-yl)amino)methyl)-4-chloro-1-((1S,2S,5R)-2-isopropyl-5-methylcyclohexyl)-1H-imidazole-5-carboxamide], which “binding rate for G12C K-Ras4B (1-169)” value is on record?
A: B (a binding rate of 60% or more and less than 80% is rated “B,”)

Q: Which “binding rate for G12C K-Ras4B (1-169)” value does the source give for `C=CC(=O)N1CC(NC(=O)c2c(Cl)nc(CNc3n[nH]c4cc(Cl)c(C(C)(C)C)cc34)n2[C@@H]2CCN(CC(F)F)C2)C1` [Example 113, (R)—N-(1-acryloylazetidin-3-yl)-2-(((5-(tert-butyl)-6-chloro-1H-indazol-3-yl)amino)methyl)-4-chloro-1-(1-(2,2-difluoroethyl)pyrrolidin-3-yl)-1H-imidazole-5-carboxamide] here?
A: A (a binding rate of 80% or more is rated “A,”)

Q: With `C=CC(=O)N1CC(NC(=O)c2c(Cl)nc(CNc3n[nH]c4cc(Cl)c(C(C)(C)C)cc34)n2[C@H]2CCN(CC(F)F)C2)C1` [Example 115, (S)—N-(1-acryloylazetidin-3-yl)-2-(((5-(tert-butyl)-6-chloro-1H-indazol-3-yl)amino)methyl)-4-chloro-1-(1-(2,2-difluoroethyl)pyrrolidin-3-yl)-1H-imidazole-5-carboxamide] as the molecule, how does the “binding rate for G12C K-Ras4B (1-169)” value read?
A: A (a binding rate of 80% or more is rated “A,”)

Q: `C=CC(=O)N1CC(NC(=O)c2c(Cl)nc(CNc3n[nH]c4cc(Cl)c(C(C)(C)C)cc34)n2[C@H]2CCN(C(C)C)C2)C1` [Example 116, (S)—N-(1-acryloylazetidin-3-yl)-2-(((5-(tert-butyl)-6-chloro-1H-indazol-3-yl)amino)methyl)-4-chloro-1-(1-isopropylpyrrolidin-3-yl)-1H-imidazole-5-carboxamide] was tested. Which “binding rate for G12C K-Ras4B (1-169)” value did it give?
A: B (a binding rate of 60% or more and less than 80% is rated “B,”)

Q: For `C=CC(=O)N1CC(NC(=O)c2c(Cl)nc(CNc3n[nH]c4cc(Cl)c(C(C)(C)C)cc34)n2C2CCCN(CC(F)F)C2)C1` (stereo not shown) [Example 117, N-(1-acryloylazetidin-3-yl)-2-(((5-(tert-butyl)-6-chloro-1H-indazol-3-yl)amino)methyl)-4-chloro-1-(1-(2,2-difluoroethyl)piperidin-3-yl)-1H-imidazole-5-carboxamide], which “binding rate for G12C K-Ras4B (1-169)” value is on record?
A: A (a binding rate of 80% or more is rated “A,”)

Q: With `C=CC(=O)N1CC(NC(=O)c2c(Cl)nc(CNc3n[nH]c4cc(Cl)c(C(C)(C)C)cc34)n2C2CCCN(C)C2)C1` (stereo not shown) [Example 118, N-(1-acryloylazetidin-3-yl)-2-(((5-(tert-butyl)-6-chloro-1H-indazol-3-yl)amino)methyl)-4-chloro-1-(1-methylpiperidin-3-yl)-1H-imidazole-5-carboxamide] as the molecule, how does the “binding rate for G12C K-Ras4B (1-169)” value read?
A: A (a binding rate of 80% or more is rated “A,”)

Q: How did the “binding rate for G12C K-Ras4B (1-169)” value turn out when `C=CC(=O)N1CC(NC(=O)c2c(Cl)nc(CNc3n[nH]c4cc(Cl)c(C(C)(C)C)cc34)n2[C@@H]2CCN(CCOC)C2)C1` [Example 119, (R)—N-(1-acryloylazetidin-3-yl)-2-(((5-(tert-butyl)-6-chloro-1H-indazol-3-yl)amino)methyl)-4-chloro-1-(1-(2-methoxyethyl)pyrrolidin-3-yl)-1H-imidazole-5-carboxamide] was run?
A: B (a binding rate of 60% or more and less than 80% is rated “B,”)

Q: Which “binding rate for G12C K-Ras4B (1-169)” value does the source give for `C=CC(=O)N1CC(NC(=O)c2c(Cl)nc(CNc3n[nH]c4cc(Cl)c(C(C)(C)C)cc34)n2[C@@H]2CCN(C3CC3)C2)C1` [Example 120, (R)—N-(1-acryloylazetidin-3-yl)-2-(((5-(tert-butyl)-6-chloro-1H-indazol-3-yl)amino)methyl)-4-chloro-1-(1-cyclopropylpyrrolidin-3-yl)-1H-imidazole-5-carboxamide] here?
A: A (a binding rate of 80% or more is rated “A,”)

Q: For `C=CC(=O)N1CC(NC(=O)c2c(Cl)nc(CNc3n[nH]c4cc(Cl)c(C(C)(C)C)cc34)n2[C@@H]2CCN(C3COC3)C2)C1` [Example 121, (R)—N-(1-acryloylazetidin-3-yl)-2-(((5-(tert-butyl)-6-chloro-1H-indazol-3-yl)amino)methyl)-4-chloro-1-(1-(oxetan-3-yl)pyrrolidin-3-yl)-1H-imidazole-5-carboxamide], which “binding rate for G12C K-Ras4B (1-169)” value is on record?
A: A (a binding rate of 80% or more is rated “A,”)

Q: How did the “binding rate for G12C K-Ras4B (1-169)” value turn out when `C=CC(=O)N1CC(NC(=O)c2c(Cl)nc(CNc3n[nH]c4cc(Cl)c(C(C)(C)C)cc34)n2[C@@H]2CCN(Cc3ccccc3)C2)C1` [Example 122, (R)—N-(1-acryloylazetidin-3-yl)-1-(1-benzylpyrrolidin-3-yl)-2-(((5-(tert-butyl)-6-chloro-1H-indazol-3-yl)amino)methyl)-4-chloro-1H-imidazole-5-carboxamide] was run?
A: A (a binding rate of 80% or more is rated “A,”)

Q: `C=CC(=O)N1CC(NC(=O)c2c(Cl)nc(CNc3n[nH]c4cc(Cl)c(C(C)(C)C)cc34)n2[C@@H]2CCN(CC(F)F)[C@H]2C)C1` [Example 125, N-(1-acryloylazetidin-3-yl)-2-(((5-(tert-butyl)-6-chloro-1H-indazol-3-yl)amino)methyl)-4-chloro-1-((2S,3R)-1-(2,2-difluoroethyl)-2-methylpyrrolidin-3-yl)-1H-imidazole-5-carboxamide] was tested. Which “binding rate for G12C K-Ras4B (1-169)” value did it give?
A: A (a binding rate of 80% or more is rated “A,”)

Q: Which “binding rate for G12C K-Ras4B (1-169)” value does the source give for `C=CC(=O)N1CC(NC(=O)c2cnc(CNc3n[nH]c4cc(Cl)c(Br)cc34)n2C)C1` [Reference Example 1, N-(1-acryloylazetidin-3-yl)-2-(((5-bromo-6-chloro-1H-indazol-3-yl)amino)methyl)-1-methyl-1H-imidazole-5-carboxamide, reference compound] here?
A: E (a binding rate of less than 20% is rated “E.”)

Q: How did the “binding rate for G12C K-Ras4B (1-169)” value turn out when `C=CC(=O)N1CC(NC(=O)c2ccc(CNc3n[nH]c4cc(Cl)c(C(C)(C)C)cc34)o2)C1` [Reference Example 2, N-(1-acryloylazetidin-3-yl)-5-(((5-(tert-butyl)-6-chloro-1H-indazol-3-yl)amino)methyl)furan-2-carboxamide, reference compound] was run?
A: E (a binding rate of less than 20% is rated “E.”)

Source: US12065430B2, “Indazole compound or salt thereof” (TAIHO PHARMACEUTICAL CO., LTD., priority 2018, dated 2024)
